Earlier results in patent US4665086A, “Method for minimizing disturbances in circadian rhythms of bodily performance and function” (priority 1983, dated 1987).

Columns and labels:
laboratory animals = conditions: chronic administration, cited from earlier work; for effect on rhythm (splitting): monoamine oxidase inhibitors
melatonin synthesis = conditions: rats, exogenous administration; cited from earlier work
[1] = tested on: endogenous melatonin secretion; conditions: beta blocker; cited from earlier work

| SMILES | effect on unentrained, free-running period (laboratory animals) | effect on rhythm (splitting) (laboratory animals) | further results |
| --- | --- | --- | --- |
| [Li] [lithium] | lengthens the unentrained, free-running period | – | – |
| CN(C)CCCN1c2ccccc2CCc2ccccc21 [imipramine] | lengthens the unentrained, free-running period | split the rhythm | – |
| [2H]O[2H] [heavy water (D2 O)] | lengthens the unentrained, free-running period | – | – |
| N[C@@H](Cc1ccc(O)c(O)c1)C(=O)O [L-dopa] | – | – | effect on melatonin synthesis (melatonin synthesis): stimulates melatonin synthesis |
| CC(C)NC[C@H](O)COc1cccc2ccccc12 (racemic) [PROPANOLOL] | – | – | effect on endogenous melatonin secretion [1]: can inhibit endogenous melatonin secretion |
| C#CCN(C)CCCOc1ccc(Cl)cc1Cl [clorgyline] | lengthens the unentrained, free-running period | split the rhythm | – |
